# Laboratory results reported in US6337333B1, “Method of treating autoimmune disease with fludarabine-5′-monophosphate” (priority 1992, dated 2002).
# What was measured:
# [1] = tested on: Type II collagen-induced arthritis; details: cited from earlier work
# [2] = tested on: IgM-RF and IgM production; details: therapeutic concentrations of drug; cited from earlier work
# T lymphocytes = test: T lymphocyte proliferative response to mitogen after 18 hr drug pretreatment (3H-thymidine); type: cell-based, human; details: 18 hr pretreatment, FIG. 1A
# Protocol: (§1) In FIG. 1, freshly isolated PBMC were enriched for T and B lymphocytes using Nylon Wool (see Materials and Methods, Example A). The enriched lymphocyte subpopulations were then incubated for 18 hrs at 37° C. with various concentrations of drug. At the end of the pretreatment period, the cell samples were washed, adjusted to 2×10^5 viable cells/ml, and cultured at 1×10^4/well in flat (B cells) or round (T cells) bottomed 96 well microtiter plates in […]. The T cells were incubated for 3 days with PHA-P ([…]) or Con A (5 μg/ml) and the B cells were cultured for 6 days with either PWM (2 μg/ml) or SAC ({fraction (1/60,000)}). 1 μCi of ^3H-thymidine was added per well during the last 18 hr of culture. The wells were then harvested onto glass fiber filters, and counted in 7 ml of Cytoscint (ICN) on the LKB 1219 Rackbeta scintillation counter. The results are expressed as the mean cpm of triplicate wells.
# (§2) Peripheral blood mononuclear cells obtained from normal donors as packed leukocyte preparations were enriched for T and B lymphocytes and pretreated with drug for 18 hrs prior to mitogen stimulation.
# (§3) Peripheral blood mononuclear cells enriched for either T or B lymphocytes were incubated for 18 hrs in complete S-10 medium at 37° C. in 12×75 mm culture tubes at 5×10^5 cells/ml. The cells were then washed in S-10 and cultured in triplicate for either 3 (T lymphocytes) or 6 (B lymphocytes) days at 2.5×10^4/well in round bottom 96-well microtiter plates in S-10 medium at 37° C. and a 5% CO2 humidified atmosphere. The wells were pulsed with 1 μCi 3H-thymidine for the last 18 hr of culture, harvested onto glass fiber filters, and counted with 7 ml Cytoscint with a LKB Rackbeta scintillation counter. The results are reported as “percent Suppression”:
# (§4) % Suppression={1−(mean cpm exp./mean cpm stim control)}×100
# B lymphocytes = test: B lymphocyte proliferative response to mitogen after 18 hr drug pretreatment (3H-thymidine); type: cell-based, human; details: 18 hr pretreatment, FIG. 1B
# Protocol: as §1, §2, §3, §4
compound,measurement,setting,value
CC(C)(S)[C@@H](N)C(=O)O [D-penicillamine],effect on disease,[1],early onset of the disease
"O=C([O-])c1ccccc1Nc1cc(Cl)ccc1C(=O)[O-].[Na+].[Na+] [lobenzarit, disodium 4-chloro-2,2′-iminodibenzoate]",production of IgM,[2],suppressed
same,production of IgM-RF,[2],suppressed
Nc1nc(F)nc2c1ncn2[C@@H]1O[C@H](CO)[C@@H](O)[C@@H]1O [F],suppression of T lymphocyte's ability to respond to mitogen,T lymphocytes,suppress
same,suppression of B lymphocyte's ability to respond to mitogen,B lymphocytes,suppress
